# Experimental data: patent US20130017174A1, “COMPOSITIONS AND METHODS FOR INCREASING HEALTH AND REDUCING PATHOGENIC BACTERIA IN ANIMALS” (The Board of Trustees of the University of Arkansas, priority 2011, published 2013)
# Test system: Salmonella enteritidis
# Experiment: In vitro testing: SE recovery from inoculated chick starter feed
# Type: cell-based
# Conditions: feed with increasing amounts of sodium nitrate (1-1000 ppm), 42° C. for 24 hours, vs control (FIG. 1)
# Experimental: Briefly, 1.25 grams of chick starter feed was measured into 13×100 mm borosilicate tubes and autoclaved. Nitrate was mixed into the feed before autoclaving at concentrations of 1000 ppm, 100 ppm, 10 ppm, or 1 ppm (Sodium Nitrate, Sigma Chemical Co., St. Louis, Mo.).
# The feed also contained 0.1% lactose as a prebiotic. The feed was suspended in 4.5 mL sterile saline and inoculated with 0.5 mL of Salmonella enteriditis (SE) culture containing approximately 10^4 cfu/ml. The tubes were treated with either 0.6 ml of 10^6 cfu/ml of FloraMax-B11® probiotic or saline as a negative control. After administering the treatment, the tubes were agitated and incubated at 42° C. for 24 hours. The tubes then were agitated and the content was serially diluted and plated on Brilliant Green Agar (BGA) containing novobiocin (250 ml) and nalidixic acid (20 μl/ml) to select for SE. Typical SE colonies were counted after 24 hours of incubation.
structure (smiles),measurement,value
"O=[N+]([O-])[O-].[Na+] [sodium nitrate, Sodium Nitrate]",recovery of SE,decreased recovery of SE as compared to the control
